Measurements published in patent US8802597B2, “Herbicidal pyrimidines” (E I du Pont de Nemours and Company, priority 2003, dated 2014).
Like-named read-outs stand apart in the source and are kept apart here.

Assays:
Type in all cases: in vivo
rice (Oryza sativa) = experiment: Test B flooded paddy test; conditions: Oryza sativa, Flood, scale 0 to 100, read-out: Plant response rating, Rice
Outline: (§1)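 Visual injury scoring (0 = no effect, 100 = complete control) versus controls made 13 to 15 days after treatment in the greenhouse. Test species were grown in flooded paddy to the 2-leaf stage: rice, barnyardgrass, umbrella sedge, duck salad.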

[1] = system: barnyardgrass (Echinochloa crus-galli); experiment: Test B flooded paddy test; conditions: Echinochloa crus-galli, Flood, scale 0 to 100, read-out: Plant response rating, Barnyardgrass
Outline: as §1

[2] = system: duck salad (Heteranthera limosa); experiment: Test B flooded paddy test; conditions: Heteranthera limosa, Flood, scale 0 to 100, read-out: Plant response rating, Ducksalad
Outline: as §1

[3] = system: umbrella sedge (Cyperus difformis); experiment: Test B flooded paddy test; conditions: Cyperus difformis, Flood, scale 0 to 100, read-out: Plant response rating, Sedge, Umbrella
Outline: as §1

[4] = system: crabgrass (Digitaria sanguinalis); experiment: Test B pre/postemergence; conditions: Digitaria sanguinalis; for pest or weed control at 62 g/ha: 62 g ai/ha; for pest or weed control at 125 g/ha: 125 g ai/ha
Outline: (§2)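 Visual injury scored 0 (no effect) to 100 (complete control) versus untreated controls after 13 to 15 days in greenhouse. Treatments were pre- or postemergence sprays of surfactant-containing solvent formulations; postemergence plants at 1- to 4-leaf stage, 2 to 18 cm.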

[5] = system: Surinam grass (Brachiaria decumbens); experiment: Test B pre/postemergence; conditions: Urochloa decumbens; for pest or weed control at 125 g/ha: 125 g ai/ha; for pest or weed control at 62 g/ha: 62 g ai/ha
Outline: as §2

corn (Zea mays) = experiment: Test B pre/postemergence; conditions: Zea mays
Outline: as §2

[6] = system: velvetleaf (Abutilon theophrasti); experiment: Test B pre/postemergence; conditions: Abutilon theophrasti; for pest or weed control at 62 g/ha: 62 g ai/ha; for pest or weed control at 125 g/ha: 125 g ai/ha
Outline: as §2

[7] = system: wheat (Triticum aestivum); experiment: Test B pre/postemergence; conditions: Triticum aestivum, scale 0 to 100 (0 no effect, 100 complete control); for plant injury at 62 g/ha: 62 g ai/ha; for plant injury at 125 g/ha: 125 g ai/ha
Outline: as §2

[8] = system: pigweed (Amaranthus retroflexus); experiment: Test B pre/postemergence; conditions: Amaranthus retroflexus, post-emergence, Postemergence, scale 0 to 100 (0 no effect, 100 complete control), read-out: Pigweed plant response rating
Outline: as §2

[9] = system: morningglory (Ipomoea coccinea); experiment: Test B pre/postemergence; conditions: Ipomoea; for pest or weed control at 62 g/ha: 62 g ai/ha; for pest or weed control at 125 g/ha: 125 g ai/ha
Outline: as §2

[10] = system: barnyardgrass (Echinochloa crus-galli); experiment: Test B pre/postemergence; conditions: Echinochloa crus-galli, post-emergence, Postemergence, scale 0 to 100 (0 no effect, 100 complete control), read-out: Barnyardgrass plant response rating
Outline: as §2

[11] = system: giant foxtail (Setaria faberii); experiment: Test B pre/postemergence; conditions: Setaria faberi; for pest or weed control at 125 g/ha: 125 g ai/ha; for pest or weed control at 62 g/ha: 62 g ai/ha
Outline: as §2

[12] = system: lambsquarters (Chenopodium album); experiment: Test B pre/postemergence; conditions: Chenopodium album, post-emergence, Postemergence, scale 0 to 100 (0 no effect, 100 complete control), read-out: Lambsquarters plant response rating
Outline: as §2

[13] = system: cocklebur (Xanthium strumarium); experiment: Test B pre/postemergence; conditions: Xanthium strumarium; for pest or weed control at 62 g/ha: 62 g ai/ha; for pest or weed control at 125 g/ha: 125 g ai/ha
Outline: as §2

wild oat (Avena fatua) = experiment: Test B postemergence; conditions: Avena fatua, post-emergence, scale 0 to 100 (0 no effect, 100 complete control), read-out: Oat, Wild plant response rating
Outline: as §2

[14] = system: blackgrass (Alopecurus myosuroides); experiment: Test B postemergence; conditions: Alopecurus myosuroides, post-emergence, scale 0 to 100 (0 no effect, 100 complete control), read-out: Blackgrass plant response rating
Outline: as §2

[15] = post-emergence, Postemergence, scale 0 to 100 (0 no effect, 100 complete control), read-out: Crabgrass plant response rating
[16] = post-emergence, Postemergence, scale 0 to 100 (0 no effect, 100 complete control), read-out: Surinam Grass plant response rating
[17] = post-emergence, Postemergence, scale 0 to 100 (0 no effect, 100 complete control), read-out: Velvetleaf plant response rating
[18] = post-emergence, Postemergence, read-out: Wheat plant response rating
[19] = pre-emergence, Preemergence, read-out: Plant response rating, Wheat
[20] = post-emergence, Postemergence, scale 0 to 100 (0 no effect, 100 complete control), read-out: Morningglory plant response rating
[21] = post-emergence, Postemergence, scale 0 to 100 (0 no effect, 100 complete control), read-out: Foxtail, Giant plant response rating
[22] = post-emergence, Postemergence, scale 0 to 100 (0 no effect, 100 complete control), read-out: Cocklebur plant response rating

Work on `CCOC(=O)c1nc(-c2ccc(Br)cc2)nc(N)c1Cl` [Compound 94, ethyl 6-amino-2-(4-bromophenyl)-5-chloro-4-pyrimidinecarboxylate] yielded a plant injury at 125 g/ha (rice (Oryza sativa); 125 g ai/ha) of 0%, a plant injury at 500 g/ha (rice (Oryza sativa); 500 g ai/ha) of 0% and a pest or weed control at 125 g/ha ([1]; 125 g ai/ha) of 0%. It also gave a pest or weed control at 500 g/ha ([1]; 500 g ai/ha) of 0%, a pest or weed control at 125 g/ha ([2]; 125 g ai/ha) of 100% and a pest or weed control at 500 g/ha ([2]; 500 g ai/ha) of 100%. For the same molecule, the pest or weed control at 125 g/ha ([3]; 125 g ai/ha) was 90%, the pest or weed control at 500 g/ha ([3]; 500 g ai/ha) was 90% and the pest or weed control at 62 g/ha [4, 15] was 70%. For the same molecule, the pest or weed control at 125 g/ha [4, 15] was 80%, the pest or weed control at 62 g/ha ([4]; pre-emergence, Preemergence, scale 0 to 100, 0 no effect, 100 complete control, read-out: Plant response rating, Crabgrass) was 40% and the pest or weed control at 125 g/ha ([4]; pre-emergence, Preemergence, scale 0 to 100 (0 no effect, 100 complete control), read-out: Plant response rating, Crabgrass) was 70%. The pest or weed control at 125 g/ha [5, 16] was 80%, the pest or weed control at 62 g/ha [5, 16] was 80% and the pest or weed control at 125 g/ha ([5]; pre-emergence, Preemergence, scale 0 to 100 (0 no effect, 100 complete control), read-out: Plant response rating, Surinam Grass) was 30%. The pest or weed control at 62 g/ha ([5]; pre-emergence, Preemergence, scale 0 to 100, 0 no effect, 100 complete control, read-out: Plant response rating, Surinam Grass) was 10%, the plant injury at 62 g/ha (corn (Zea mays); post-emergence, Postemergence, 62 g ai/ha, scale 0 to 100 (0 no effect, 100 complete control), read-out: Corn plant response rating) was 70% and the plant injury at 125 g/ha (corn (Zea mays); post-emergence, Postemergence, 125 g ai/ha, scale 0 to 100 (0 no effect, 100 complete control), read-out: Corn plant response rating) was 90%. It also gave a Corn plant response rating (crop injury, 0 = no effect, 100 = complete kill) at 62 g/ha (corn (Zea mays); pre-emergence, Preemergence, 62 g ai/ha, scale 0 to 100, 0 no effect, 100 complete control) of 0%, a Corn plant response rating (crop injury, 0 = no effect, 100 = complete kill) at 125 g/ha (corn (Zea mays); pre-emergence, Preemergence, 125 g ai/ha, scale 0 to 100 (0 no effect, 100 complete control)) of 0% and a pest or weed control at 62 g/ha [6, 17] of 90%. For the same molecule, the pest or weed control at 125 g/ha [6, 17] was 100%, the pest or weed control at 62 g/ha ([6]; pre-emergence, Preemergence, scale 0 to 100, 0 no effect, 100 complete control, read-out: Plant response rating, Velvetleaf) was 40% and the pest or weed control at 125 g/ha ([6]; pre-emergence, Preemergence, scale 0 to 100 (0 no effect, 100 complete control), read-out: Plant response rating, Velvetleaf) was 70%. It also gave a plant injury at 62 g/ha [7, 18] of 40%, a plant injury at 125 g/ha [7, 18] of 60% and a plant injury at 62 g/ha [7, 19] of 30%. It also gave a plant injury at 125 g/ha [7, 19] of 60%, a pest or weed control at 62 g/ha ([8]; 62 g ai/ha) of 90% and a pest or weed control at 125 g/ha ([8]; 125 g ai/ha) of 90%. It also gave a pest or weed control at 62 g/ha [9, 20] of 80%, a pest or weed control at 125 g/ha [9, 20] of 90% and a pest or weed control at 62 g/ha ([9]; pre-emergence, Preemergence, scale 0 to 100, 0 no effect, 100 complete control, read-out: Plant response rating, Morningglory) of 0%. It also gave a pest or weed control at 125 g/ha ([9]; pre-emergence, Preemergence, scale 0 to 100 (0 no effect, 100 complete control), read-out: Plant response rating, Morningglory) of 0%, a pest or weed control at 62 g/ha ([10]; 62 g ai/ha) of 80% and a pest or weed control at 125 g/ha ([10]; 125 g ai/ha) of 90%. The pest or weed control at 125 g/ha [11, 21] was 60%, the pest or weed control at 62 g/ha [11, 21] was 50% and the pest or weed control at 125 g/ha ([11]; pre-emergence, Preemergence, scale 0 to 100 (0 no effect, 100 complete control), read-out: Plant response rating, Foxtail, Giant) was 20%. For the same molecule, the pest or weed control at 62 g/ha ([11]; pre-emergence, Preemergence, scale 0 to 100, 0 no effect, 100 complete control, read-out: Plant response rating, Foxtail, Giant) was 0%, the pest or weed control at 62 g/ha ([12]; 62 g ai/ha) was 90% and the pest or weed control at 125 g/ha ([12]; 125 g ai/ha) was 90%. It also gave a pest or weed control at 62 g/ha [13, 22] of 100%, a pest or weed control at 125 g/ha [13, 22] of 100% and a pest or weed control at 62 g/ha ([13]; pre-emergence, Preemergence, scale 0 to 100, 0 no effect, 100 complete control, read-out: Plant response rating, Cocklebur) of 30%. It also gave a pest or weed control at 125 g/ha ([13]; pre-emergence, Preemergence, scale 0 to 100 (0 no effect, 100 complete control), read-out: Plant response rating, Cocklebur) of 50%, a pest or weed control at 62 g/ha (wild oat (Avena fatua); 62 g ai/ha) of 30% and a pest or weed control at 125 g/ha (wild oat (Avena fatua); 125 g ai/ha) of 30%. For the same molecule, the pest or weed control at 62 g/ha ([14]; 62 g ai/ha) was 40% and the pest or weed control at 125 g/ha ([14]; 125 g ai/ha) was 60%.
